Reference: patent US6908930B2, “4-substituted 7-AZA-indolin-2-ones and their use as protein kinase inhibitors” (Sugen, Inc., priority 1999, dated 2005)
Counter-ions that a name gives are not always drawn.

What was measured:
HER-2 = target: T1, HER-2 (Homo sapiens, UniProt P04626); assay: Assay for modulation of HER-2 activity in whole cells (ELISA); format: cell-based; conditions: EGFR/HER-2chimera/#T3-C7 cell lines, EGF stimulated; read-out: HER-2 kinase IC50
T1 construct: expressed in mouse 3T3 (clone C7) cells; P00533 (Epidermal growth factor receptor)
T1 sequence (P04626 720-987 limits assumed): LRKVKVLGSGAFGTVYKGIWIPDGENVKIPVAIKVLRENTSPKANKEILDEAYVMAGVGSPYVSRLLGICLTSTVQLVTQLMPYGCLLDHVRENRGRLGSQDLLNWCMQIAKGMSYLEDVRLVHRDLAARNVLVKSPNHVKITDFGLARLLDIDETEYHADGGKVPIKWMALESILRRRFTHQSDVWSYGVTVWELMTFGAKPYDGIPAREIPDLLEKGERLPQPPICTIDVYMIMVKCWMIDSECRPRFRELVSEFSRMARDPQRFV
Method: Using the following reagents, supplies, and method, the ability of compounds of the invention to affect the activity of HER-2 in whole cells in an ELISA format can be assigned.
EGFR/HER-2chimera/#T3-C7 cell lines are used for this assay. Choose dishes having 80-90% confluence for the experiment. Collect cells by trypsinization and centrifuge at 1000 rpm at room temperature for 5 minutes.
Resuspend cells in starve medium and count with trypan blue. Only viability above 90% is acceptable. Seed cells in starve medium at a density of 2,500 cells per well, 90 μL per well, in a 96 well microtiter plate. Incubate seeded cells in 5% CO2 at 37° C. overnight. Start the assay two days after seeding.
Samples are diluted directly into a polypropylene plate containing starve-DMEM (non-sterile is okay). This dilution will be 1:10 or greater, depending on the samples being screened. The same amount of DMSO is put into the control wells. […] are then transferred to the cell plate at a 1:10 dilution (10 μL of sample and media into 90 μL of starve media). The final DMSO concentration will be 1% or lower.
Ten samples are put into wells 2-11 of row A of the NUNC 96 well polypropylene plate. These wells contain straight starve-DMEM. For a 1:10 dilution, one would put 10 μL of drug into 90 μL of media. The rest of the wells (including the controls) will have a DMSO/media mixture. The percentage of DMSO in this mixture is determined by the first dilution factor, in this case 1:10. The DMSO concentration is therefore 10%. An equal amount of drug and media from row A is put into row B, containing DMSO and media. The same amount is then taken out and put into row C. This is repeated for all rows. These are 1:2 dilutions. All wells are then transferred to the cell plate at a 1:10 dilution (10 μL of sample and media into 90 μL of starve-DMEM. The final DMSO concentration will be 1% or lower. […]
After a 2 hour incubation with the drug, add prepared EGF ligand to cells at 50 μL per well, for a final concentration of 50 nM. Positive control wells (8) receive the same amount of EGF. […] Incubate at 37° C. for 10 minutes.
Remove drug, EGF, and DMEM by dumping in sink. Wash cells once with PBS.
Transfer HNTG* to cells, 100 μL per well. Place on ice for 5 minutes. Meanwhile, remove blocking buffer from ELISA plate and wash as described above. With a pipette tip securely fitted to a micropipettor, scrape cells from plate and homogenize cell material by repeatedly aspirating and dispensing the HNTG* lysis buffer. Transfer lysate to a coated, blocked, washed ELISA plate. Alternatively, one may use a Costar transfer cartridge to transfer lysate to the ELISA plate. Incubate, shaking, at room temperature for one hour.
Remove lysate by dumping in sink, then wash as described earlier. Transfer freshly diluted anti-phosphotyrosine (anti-Ptyr) antibody (1:3000 in TEST) to ELISA plate, 100 μL per well. Incubate, shaking, at room temperature, for 30 minutes.
Remove anti-Ptyr antibody by dumping in sink, then wash as described earlier. Transfer freshly diluted BIOSOURCE antibody to ELISA plate, (1:8000 in TEST), 100 μL per well. Incubate, shaking, at room temperature for 30 minutes.
Remove BIOSOURCE antibody by dumping in sink, then wash as described earlier. Transfer freshly prepared ABTS/H2O2 solution to ELISA plate, […]. Incubate 5-10 minutes while shaking. Remove any bubbles and if necessary, stop reaction with the addition of 100 μL of 0.2 M HCl per well.
Read assay on Dynatech MR7000 ELISA reader. Test Filter: […]; Reference Filter: […]. A preferred template for the placement of controls in this experiment is provided below: […]

PDGFR = target: T2, PDGFR (Homo sapiens, UniProt P09619); assay: Assay for modulation of PDGFR activity (ELISA); format: biochemical; conditions: for IC50: read-out: bio PDGFR IC50
T2 construct: expressed in transfected cells; host or cells: NIH3T3
T2 sequence (P09619 33-1106, species assumed): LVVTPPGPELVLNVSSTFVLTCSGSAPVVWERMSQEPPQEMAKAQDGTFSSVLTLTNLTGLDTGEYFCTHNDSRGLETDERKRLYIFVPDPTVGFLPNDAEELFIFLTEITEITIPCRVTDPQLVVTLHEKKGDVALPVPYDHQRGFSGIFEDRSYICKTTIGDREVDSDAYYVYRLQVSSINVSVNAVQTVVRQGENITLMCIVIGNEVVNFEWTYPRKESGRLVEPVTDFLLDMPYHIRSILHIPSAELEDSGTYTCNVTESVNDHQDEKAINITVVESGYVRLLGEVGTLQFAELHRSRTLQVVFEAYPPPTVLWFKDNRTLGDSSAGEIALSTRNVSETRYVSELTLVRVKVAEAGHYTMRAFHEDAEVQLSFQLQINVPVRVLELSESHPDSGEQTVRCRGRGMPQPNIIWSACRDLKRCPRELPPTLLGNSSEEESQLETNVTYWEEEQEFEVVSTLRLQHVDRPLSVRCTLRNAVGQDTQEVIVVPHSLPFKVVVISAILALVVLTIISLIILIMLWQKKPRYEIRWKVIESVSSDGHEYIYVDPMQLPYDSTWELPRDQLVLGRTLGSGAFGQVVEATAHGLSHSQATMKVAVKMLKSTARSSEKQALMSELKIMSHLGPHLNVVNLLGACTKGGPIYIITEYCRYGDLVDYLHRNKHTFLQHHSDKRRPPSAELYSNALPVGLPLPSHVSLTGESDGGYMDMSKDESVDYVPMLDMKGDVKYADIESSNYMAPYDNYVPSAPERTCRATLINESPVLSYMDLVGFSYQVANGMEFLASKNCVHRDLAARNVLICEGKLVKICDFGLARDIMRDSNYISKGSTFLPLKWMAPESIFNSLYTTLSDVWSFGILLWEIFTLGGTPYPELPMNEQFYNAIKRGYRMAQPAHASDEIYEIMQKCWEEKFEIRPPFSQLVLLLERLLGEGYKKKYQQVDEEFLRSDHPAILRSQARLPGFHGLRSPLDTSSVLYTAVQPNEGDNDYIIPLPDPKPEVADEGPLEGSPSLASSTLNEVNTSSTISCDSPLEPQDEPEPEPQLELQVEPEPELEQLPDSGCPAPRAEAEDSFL
Method: Using the following reagents, supplies, and methods, the ability of the compounds of the invention to modulate the in vitro activity of the PDGFR can be readily determined in an enzyme-linked immunosorbent assay (ELISA).
Monoclonal anti-PDGFR antibody (28D4C10) is stored at −20° C. in 50 mL tubes prior to use.
Lysates from PDGFR-β expressing NIH3T3 cells are obtained and stored at −80° C. in 1 mL aliquots. PDGFR-β expression in eukaryotic cells is well known in the art. Lysates are prepared by the following method. Place carrier dishes in ice trays, and after cooling, remove the media and replace with ice cold PBS. Remove the PBS and repeat. […] Take up lysate with a pipettor and add to a 30 mL centrifuge tube on ice. Vortex the tubes for 30-60 seconds and then centrifuge for 10 minutes at 7000 rpm in a J-20 rotor which has been precooled to below 0° C. Recover the supernatants and combine them in a 250 mL tube and place on ice. Perform protein determination to measure the total quantity of protein per mL of solution. Aliquot the lysate into 1 mL fractions and store at −80° C.
Coat Corning 96 well ELISA plates with 0.5 μg per well 28D4C10 antibody in a volume of 100 μl PBS overnight, at 4° C. and remove unbound antibody, 28D4C10, from wells by inverting plate to remove liquid. Wash 1× with distilled H2O by filling wells. Pat the plate on a paper towel to remove excess liquid.
Add 150 μL of Blocking Buffer to each well. Incubate for 30 minutes at room temperature, with shaking and wash plate 3× with deionized water, then once with TBST. Pat plate on a paper towel to remove excess liquid and bubbles
Dilute lysate in PBS (10 mg lysate/100 μL PBS). Add 100 μL of diluted lysate to each well. Shake at room temperature for 60 min. Wash plate 3× with deionized water, then once with TBST. Pat plate on a paper towel to remove excess liquid and bubbles.
Add 80 μL Kinase Buffer to ELISA plate containing captured PDGFR.
Dilute drugs/extracts 1:10 (unless specified otherwise) in TBS+10% DMSO in 96-well polypropylene plates. (i.e., 10 μL compound+90 μL (TBS+10% DMSO)). Add 10 μL diluted drugs/extracts to ELISA plate. […] Incubate for 30 minutes while shaking at room temperature.
After 30 minutes stop reaction with addition of 10 μL of 200 mM EDTA pH 8.0 for 20 mM final in well. Wash 4× with deionized water, twice with TBST.
Incubate 30-45 minutes at room temperature, with shaking. Wash plate 3× with deionized water, then once with TBST. Pat plate on a paper towel to remove excess liquid and bubbles.
Incubate 30 minutes at room temperature with shaking. Wash plate 3× with deionized water, then once with TBST. Pat plate on a paper towel to remove excess liquid and bubbles.
Add 100 μL of ABTS/H2O2 solution to each well. Incubate 10 to 30 minutes while shaking. Remove any bubbles. If necessary stop reaction with the addition of 100 μL of 0.2M HCl per well
Read assay on Dynatech MR7000 ELISA reader.

| Compound | IC50 (HER-2) [µM] | IC50 (PDGFR) [µM] | effect on the activity of PDGFR (in words) (PDGFR; hydrochloride salt) |
| --- | --- | --- | --- |
| Cc1cc(C(=O)NCCN2CCOCC2)[nH]c1C=C1C(=O)Nc2ncnc(Nc3ccc4c(ccn4Cc4ccccc4)c3)c21.Cl [Formula 6, 5-[4-(1-BENZYL-1H-INDOL-5-YLAMINO)-6-OXO-6,7-DIHYDRO-PYRROLO[2,3-D]PYRIMIDIN-5-YLIDENEMETHYL]-4-METHYL-1H-PYRROLE-2-CARBOXYLIC ACID (2-MORPHOLIN-4-YL-ETHYL)-AMIDE HYDROCHLORIDE] | 0.13 | > 100 | relatively little effect on the activity of PDGFR |
| Cc1nc[nH]c1C=C1C(=O)Nc2ncnc(Nc3ccc(F)c(Cl)c3)c21 [Formula 8] | 0.1 | 16.4 | – |
| Cc1cc(C(=O)NCCN2CCOCC2)[nH]c1C=C1C(=O)Nc2ncnc(N3CCN(C)CC3)c21 [Formula 10, 4-METHYL-5-[4-(4-METHYL-PIPERAZIN-1-YL)-6-OXO-6,7-DIHYDRO-PYRROLO[2,3-D]PYRIMIDIN-5-YLIDENEMETHYL]-1H-PYRROLE-2-CARBOXYLIC ACID (2-MORPHOLIN-4-YL-ETHYL)-AMIDE] | > 100 | > 100 | – |
| O=C1Nc2ncnc(Nc3ccc(F)c(Cl)c3)c2C1=Cc1ccc(C(=O)NCCN2CCOCC2)[nH]1 [Formula 15, 5-[4-(3-CHLORO-4-FLUORO-PHENYLAMINO)-6-OXO-6,7-DIHYDRO-PYRROLO[2,3-D]PYRIMIDIN-5-YLIDENEMETHYL]-1H-PYRROLE-2-CARBOXYLIC ACID (2-MORPHOLIN-4-YL-ETHYL)-AMIDE] | 0.13 | > 100 | – |
| C#Cc1cccc(Nc2ncnc3c2C(=Cc2ccc(C(=O)NCCN4CCOCC4)[nH]2)C(=O)N3)c1 [Formula 16, 5-[4-(3-ETHYNYL-PHENYLAMINO)-6-OXO-6,7-DIHYDRO-PYRROLO[2,3-D]PYRIMIDIN-5-YLIDENEMETHYL]-1H-PYRROLE-2-CARBOXYLIC ACID (2-MORPHOLIN-4-YL-ETHYL)-AMIDE HYDROCHLORIDE] | 1.02 | > 20 | – |
| C#Cc1cccc(Nc2ncnc3c2C(=Cc2[nH]c(C(=O)NCCN4CCOCC4)cc2C)C(=O)N3)c1 [Formula 17, 5-[4-(3-ETHYNYL-PHENYLAMINO)-6-OXO-6,7-DIHYDRO-PYRROLO[2,3-D]PYRIMIDIN-5-YLIDENEMETHYL]-4-METHYL-1H-PYRROLE-2-CARBOXYLIC ACID (2-MORPHOLIN-4-YL-ETHYL)-AMIDE] | 0.1 | > 20 | – |
| CC(C)c1cc(CCC(=O)O)c(/C=C2\C(=O)Nc3ncnc(Nc4ccc(F)c(Cl)c4)c32)[nH]1 [Formula 27] | 0.64 | > 20 | – |

Continued, in another order:

| IC50 (HER-2) [µM] | IC50 (PDGFR) [µM] | Compound | effect on the activity of PDGFR (in words) (PDGFR; hydrochloride salt) |
| --- | --- | --- | --- |
| 0.272 | > 100 | Cc1cc(C(=O)NCCN2CCOCC2)[nH]c1C=C1C(=O)Nc2nccc(Nc3ccc(F)c(Cl)c3)c21 [Formula 3, 5-[4-(3-CHLORO-4-FLUORO-PHENYLAMINO)-2-OXO-1,2-DIHYDRO-PYRROLO[2,3-B]PYRIDIN-3-YLIDENEMETHYL]-4-METHYL-1H-PYRROLE-2-CARBOXYLIC ACID (2-MORPHOLIN-4-YL-ETHYL)-AMIDE] | – |
| 0.16 | > 100 | Cc1cc(C(=O)NCCN2CCOCC2)[nH]c1C=C1C(=O)Nc2ncnc(Nc3ccc(F)c(Cl)c3)c21 [Formula 4, 5-[4-(3-CHLORO-4-FLUORO-PHENYLAMINO)-6-OXO-6,7-DIHYDRO-PYRROLO[2,3-D]PYRIMIDIN-5-YLIDENEMETHYL]-4-METHYL-1H-PYRROLE-2-CARBOXYLIC ACID (2-MORPHOLIN-4-YL-ETHYL)-AMIDE HYDROCHLORIDE] | – |
| 61.2 | > 100 | O=C1Nc2ncnc(N3CCCCC3)c2C1=Cc1ccc(C(=O)NCCN2CCOCC2)[nH]1 [Formula 5, 5-(6-OXO-4-PIPERIDIN-1-YL-6,7-DIHYDRO-PYRROLO[2,3-D]PYRIMIDIN-5-YLIDENEMETHYL)-1H-PYRROLE-2-CARBOXYLIC ACID (2-MORPHOLIN-4-YL-ETHYL)-AMIDE] | – |
| 0.04 | 86 | Cc1[nH]c(C=C2C(=O)Nc3ncnc(Nc4ccc(F)c(Cl)c4)c32)c(C)c1CCCN1CCOCC1 [Formula 7, 4-(3-CHLORO-4-FLUORO-PHENYLAMINO)-5-[3,5-DIMETHYL-4-(3-MORPHOLIN-4-YL-PROPYL)-1H-PYRROL-2-YLMETHYLENE]-5,7-DIHYDRO-PYRROLO[2,3-D]PYRIMIDIN-6-ONE HYDROCHLORIDE] | – |
| 0.01 | > 100 | Cc1cc(C)c(C=C2C(=O)Nc3ncnc(Nc4ccc(F)c(Cl)c4)c32)[nH]1 [Formula 9] | – |
| > 100 | 28.1 | Cc1nc[nH]c1C=C1C(=O)Nc2ncnc(N3CCN(C)CC3)c21 [Formula 11] | – |
| 0.28 | > 100 | O=C1Nc2ncnc(Nc3ccc4c(ccn4Cc4ccccc4)c3)c2C1=Cc1ccc(C(=O)NCCN2CCOCC2)[nH]1 [Formula 12, 5-[4-(1-BENZYL-1H-INDOL-5-YLAMINO)-6-OXO-6,7-DIHYDRO-PYRROLO[2,3-D]PYRIMIDIN-5-YLIDENEMETHYL]-1H-PYRROLE-2-CARBOXYLIC ACID (2-MORPHOLIN-4-YL-ETHYL)-AMIDE HYDROCHLORIDE] | – |
| > 100 | > 100 | O=C1Nc2ncnc(N3CCOCC3)c2C1=Cc1ccc(C(=O)NCCN2CCOCC2)[nH]1 [Formula 13, 5-(4-MORPHOLIN-4-YL-6-OXO-6,7-DIHYDRO-PYRROLO[2,3-D]PYRIMIDIN-5-YLIDENEMETHYL)-1H-PYRROLE-2-CARBOXYLIC ACID (2-MORPHOLIN-4-YL-ETHYL)-AMIDE] | – |
| > 100 | > 100 | Cc1nc[nH]c1C=C1C(=O)Nc2ncnc(N3CCOCC3)c21 [Formula 14] | – |
| 0.03 | 15.3 | C#Cc1cccc(Nc2ncnc3c2C(=Cc2[nH]c(C)c(CCCN4CCOCC4)c2C)C(=O)N3)c1 [Formula 18] | – |
